Data from patent US6900219B2, “ABCA-1 elevating compounds” (CV Therapeutics, Inc., priority 2002, dated 2005).

Each molecule was assayed on ABCA-1 gene (assay: compounds tested and found to elevate cellular expression of the ABCA-1 gene (Examples 1-6; test not named)).
Assay type: cell-based
Method: Activity testing is conducted as described in those patents and patent applications referenced above, and in the Examples below, and by methods apparent to one skilled in the art.
For `CCc1ccc(C(=O)N(CCc2ccccn2)Cc2ccccc2[N+](=O)[O-])cc1` [(4-ethylphenyl)-N-[(2-nitrophenyl)methyl]-N-(2-(2-pyridyl)ethyl)carboxamide], the “cellular expression of the ABCA-1 gene” value was “elevate cellular expression of the ABCA-1 gene”. For `O=C(NC1=NCCS1)c1ccc(F)cc1` [(4-fluorophenyl)-N-(1,3-thiazolin-2-yl)carboxamide], the “cellular expression of the ABCA-1 gene” value was “elevate cellular expression of the ABCA-1 gene”. For `O=C1CSC(NC(=O)c2ccc(F)cc2)=N1` [(4-fluorophenyl)-N-(4-oxo(1,3-thiazolin-2-yl))carboxamide], the “cellular expression of the ABCA-1 gene” value was “elevate cellular expression of the ABCA-1 gene”. For `COc1ccc(C(=O)NC2=NCCS2)cc1` [(4-methoxyphenyl)-N-(1,3-thiazolin-2-yl)carboxamide], the “cellular expression of the ABCA-1 gene” value was “elevate cellular expression of the ABCA-1 gene”. In the case of `COc1ccc(C(=O)NCCc2ccccn2)cc1` [(4-methoxyphenyl)-N-(2-(2-pyridyl)ethyl)carboxamide], the “cellular expression of the ABCA-1 gene” value is reported as “elevate cellular expression of the ABCA-1 gene”. With `COc1ccc(C(=O)Nc2nc(-c3ccccc3)cs2)cc1` [(4-methoxyphenyl)-N-(4-phenyl(1,3-thiazol-2-yl))carboxamide] the “cellular expression of the ABCA-1 gene” value was “elevate cellular expression of the ABCA-1 gene”. With `Cc1ccc(C(=O)NC2=NCCS2)cc1` [(4-methylphenyl)-N-(1,3-thiazolin-2-yl)carboxamide] the “cellular expression of the ABCA-1 gene” value was “elevate cellular expression of the ABCA-1 gene”. With `Cc1ccc(C(=O)NCCc2ccccn2)cc1` [(4-methylphenyl)-N-(2-(2-pyridyl)ethyl)carboxamide] the “cellular expression of the ABCA-1 gene” value was “elevate cellular expression of the ABCA-1 gene”. In the case of `Cc1ccc(C(=O)NC2=NC(=O)CS2)cc1` [(4-methylphenyl)-N-(4-oxo(1,3-thiazolin-2-yl))carboxamide], the “cellular expression of the ABCA-1 gene” value is reported as “elevate cellular expression of the ABCA-1 gene”. For `O=C1CSC(NC(=O)c2ccc(OC(F)(F)F)cc2)=N1` [(4-trifluoromethoxyphenyl)-N-(4-oxo(1,3-thiazolin-2-yl))carboxamide], the “cellular expression of the ABCA-1 gene” value was “elevate cellular expression of the ABCA-1 gene”. In the case of `N#Cc1c(NC(=O)c2ccc(Br)o2)sc2ccccc12` [(5-bromo(2-furyl)-N-(3-cyanobenzo[b]thiophen-2-yl)carboxamide], the “cellular expression of the ABCA-1 gene” value is reported as “elevate cellular expression of the ABCA-1 gene”. `CCCCNC(=O)N(Cc1ccco1)C(C)c1nc2cc(Cl)ccc2c(=O)n1-c1ccc(C)cc1` (stereo not shown) [(butylamino)-N-{[7-chloro-3-(4-methylphenyl)-4-oxo(3-hydroquinazolin-2-yl)]ethyl}-N-(2-furylmethyl)carboxamide] was tested, and the “cellular expression of the ABCA-1 gene” value was “elevate cellular expression of the ABCA-1 gene”. In the case of `CCCCNC(=O)N(CCC(C)C)C(C)c1nc2cc(Cl)ccc2c(=O)n1-c1ccc(C)cc1` (stereo not shown) [(butylamino)-N-{[7-chloro-3-(4-methylphenyl)-4-oxo(3-hydroquinazolin-2-yl)]ethyl}-N-(3-methylbutyl)carboxamide], the “cellular expression of the ABCA-1 gene” value is reported as “elevate cellular expression of the ABCA-1 gene”. For `O=C(Nc1ccc2c(c1)CCC2)NC1CCCCC1` [(cyclohexylamino)-N-indan-5-ylcarboxamide], the “cellular expression of the ABCA-1 gene” value was “elevate cellular expression of the ABCA-1 gene”. `CN(C)c1ccc(CN(C(=O)Nc2ccccc2F)c2ccc3c(c2)CCC3)cc1` [({[4-(dimethylamino)phenyl]methyl}indan-5-ylamino)-N-(2-fluorophenyl)carboxamide] was tested, and the “cellular expression of the ABCA-1 gene” value was “elevate cellular expression of the ABCA-1 gene”. In the case of `CCc1c(C(=O)NC(C)C(C)C)cnn1-c1nc(-c2ccc(C)cc2)cs1` (stereo not shown) [N-(1,2-dimethylpropyl){5-ethyl-1-[4-(4-methylphenyl)(1,3-thiazol-2-yl)]pyrazol-4-yl}carboxamide], the “cellular expression of the ABCA-1 gene” value is reported as “elevate cellular expression of the ABCA-1 gene”. `O=C(Nc1nccs1)c1ccc(OC(F)(F)F)cc1` [N-(1,3-thiazol-2-yl)[4-(trifluoromethoxy)phenyl]carboxamide] was tested, and the “cellular expression of the ABCA-1 gene” value was “elevate cellular expression of the ABCA-1 gene”. For `O=C(NC1=NCCS1)c1ccc(C(F)(F)F)cc1` [N-(1,3-thiazolin-2-yl)[4-(trifluoromethyl)phenyl]carboxamide], the “cellular expression of the ABCA-1 gene” value was “elevate cellular expression of the ABCA-1 gene”. With `CCCCN(CC(=O)N1CCc2ccccc2C1)C(=O)Nc1cccc(Cl)c1Cl` [N-(2,3-dichlorophenyl)[butyl(2-oxo-2-(2-1,2,3,4-tetrahydroisoquinolyl)ethyl)amino]carboxamide] the “cellular expression of the ABCA-1 gene” value was “elevate cellular expression of the ABCA-1 gene”. In the case of `Cc1ccc(C)c(NC(=O)c2sc3ccccc3c2Cl)c1` [N-(2,5-dimethylphenyl)(3-chlorobenzo[b]thiophen-2-yl)carboxamide], the “cellular expression of the ABCA-1 gene” value is reported as “elevate cellular expression of the ABCA-1 gene”. `Cc1cccc(C)c1NC(=O)c1sc2ccccc2c1Cl` [N-(2,6-dimethylphenyl)(3-chlorobenzo[b]thiophen-2-yl)carboxamide] was tested, and the “cellular expression of the ABCA-1 gene” value was “elevate cellular expression of the ABCA-1 gene”. With `O=C(Nc1cccc(Cl)c1)Nc1ccccc1Cl` [N-(2-chlorophenyl)[(3-chlorophenyl)amino]carboxamide] the “cellular expression of the ABCA-1 gene” value was “elevate cellular expression of the ABCA-1 gene”. For `O=C(Nc1cccc(Cl)c1)Nc1ccccc1F` [N-(2-fluorophenyl)[(3-chlorophenyl)amino]carboxamide], the “cellular expression of the ABCA-1 gene” value was “elevate cellular expression of the ABCA-1 gene”. For `COc1cc2c(cc1NC(=O)C(C)(C)C)oc1ccccc12` [N-(2-methoxydibenzo[b,d]furan-3-yl)-2,2-dimethylpropanamide], the “cellular expression of the ABCA-1 gene” value was “elevate cellular expression of the ABCA-1 gene”. `CC(C)CN(C(=O)Nc1cccc2ccccc12)C(C)c1nc2ccccc2c(=O)n1-c1ccc2ccccc2c1` (stereo not shown) [N-(2-methylpropyl)(naphthylamino)-N-[(3-(2-naphthyl)-4-oxo(3-hydroquinazolin-2-yl))ethyl]carboxamide] was tested, and the “cellular expression of the ABCA-1 gene” value was “elevate cellular expression of the ABCA-1 gene”. For `CC(C)CN(C(=O)Nc1cccc(C(F)(F)F)c1)C(C)c1nc2ccccc2c(=O)n1-c1ccc2ccccc2c1` (stereo not shown) [N-(2-methylpropyl)-N-[(3-(2-naphthyl)-4-oxo(3-hydroquinazolin-2-yl))ethyl]{[3-(trifluoromethyl)phenyl]amino}carboxamide], the “cellular expression of the ABCA-1 gene” value was “elevate cellular expression of the ABCA-1 gene”. `CSc1ccc(NC(=O)N(CC(C)C)C(C)c2nc3ccccc3c(=O)n2-c2ccc3ccccc3c2)cc1` (stereo not shown) [N-(2-methylpropyl)[(4-methylthiophenyl)amino]-N-[(3-(2-naphthyl)-4-oxo(3-hydroquinazolin-2-yl))ethyl]carboxamide] was tested, and the “cellular expression of the ABCA-1 gene” value was “elevate cellular expression of the ABCA-1 gene”. With `O=C(Nc1ccc2c(c1)OCCO2)c1ccc([N+](=O)[O-])cc1Cl` [N-(2H,3H-benzo[e]1,4-dioxan-6-yl)(2-chloro-4-nitrophenyl)carboxamide] the “cellular expression of the ABCA-1 gene” value was “elevate cellular expression of the ABCA-1 gene”. For `O=C(COCc1ccccc1)Nc1ccc2c(c1)OCCO2` [N-(2H,3H-benzo[e]1,4-dioxin-6-yl)-2-(phenylmethoxy)acetamide], the “cellular expression of the ABCA-1 gene” value was “elevate cellular expression of the ABCA-1 gene”. In the case of `O=C(CCC1CCCC1)Nc1ccc2c(c1)OCCO2` [N-(2H,3H-benzo[e]1,4-dioxin-6-yl)-3-cyclopentylpropanamide], the “cellular expression of the ABCA-1 gene” value is reported as “elevate cellular expression of the ABCA-1 gene”. `CC(C)(C)c1ccc(C(=O)Nc2ccc3c(c2)OCCO3)cc1` [N-(2H,3H-benzo[e]1,4-dioxin-6-yl)[4-(tert-butyl)phenyl]carboxamide] was tested, and the “cellular expression of the ABCA-1 gene” value was “elevate cellular expression of the ABCA-1 gene”. In the case of `O=C(Nc1ccc2c(c1)OCCO2)Nc1ccccc1Br` [N-(2H,3H-benzo[e]1,4-dioxin-6-yl)[(2-bromophenyl)amino]carboxamide], the “cellular expression of the ABCA-1 gene” value is reported as “elevate cellular expression of the ABCA-1 gene”. With `O=C(Nc1ccc2c(c1)OCCO2)Nc1ccc([N+](=O)[O-])cc1Cl` [N-(2H,3H-benzo[e]1,4-dioxin-6-yl)[(2-chloro-4-nitrophenyl)amino]carboxamide] the “cellular expression of the ABCA-1 gene” value was “elevate cellular expression of the ABCA-1 gene”. For `O=C(Nc1ccc(Cl)c(Cl)c1)Nc1ccc2c(c1)OCCO2` [N-(2H,3H-benzo[e]1,4-dioxin-6-yl)[(3,4-dichlorophenyl)amino]carboxamide], the “cellular expression of the ABCA-1 gene” value was “elevate cellular expression of the ABCA-1 gene”. With `O=C(Nc1ccc2c(c1)OCOC2)c1sc2ccccc2c1Cl` [N-(2H,4H-benzo[e]1,3-dioxan-7-yl)(3-chlorobenzo[b]thiophen-2-yl)carboxamide] the “cellular expression of the ABCA-1 gene” value was “elevate cellular expression of the ABCA-1 gene”. With `O=C(Nc1cccc(O)c1)Nc1ccc(Cl)c(Cl)c1` [N-(3,4-dichlorophenyl)[(3-hydroxyphenyl)amino]carboxamide] the “cellular expression of the ABCA-1 gene” value was “elevate cellular expression of the ABCA-1 gene”. `Cc1ccc(NC(=O)Nc2ccc(Cl)c(Cl)c2)cc1` [N-(3,4-dichlorophenyl)[(4-methylphenyl)amino]carboxamide] was tested, and the “cellular expression of the ABCA-1 gene” value was “elevate cellular expression of the ABCA-1 gene”. `O=C(NCC1CCCCC1)Nc1ccc(Cl)c(Cl)c1` [N-(3,4-dichlorophenyl)[(cyclohexylmethyl)amino]carboxamide] was tested, and the “cellular expression of the ABCA-1 gene” value was “elevate cellular expression of the ABCA-1 gene”. For `Cc1ccc(NC(=O)c2ccc3ccccc3c2)cc1C` [N-(3,4-dimethylphenyl)-2-naphthylcarboxamide], the “cellular expression of the ABCA-1 gene” value was “elevate cellular expression of the ABCA-1 gene”. For `Cc1ccc(NC(=O)Nc2cccc(Cl)c2)cc1C` [N-(3,4-dimethylphenyl)[(3-chlorophenyl)amino]carboxamide], the “cellular expression of the ABCA-1 gene” value was “elevate cellular expression of the ABCA-1 gene”. In the case of `Cc1ccc(NC(=O)Nc2ccc(Cl)cc2)cc1C` [N-(3,4-dimethylphenyl)[(4-chlorophenyl)amino]carboxamide], the “cellular expression of the ABCA-1 gene” value is reported as “elevate cellular expression of the ABCA-1 gene”. In the case of `O=C(Nc1cccc(Cl)c1)c1ccc2ccccc2c1` [N-(3-chlorophenyl)-2-naphthylcarboxamide], the “cellular expression of the ABCA-1 gene” value is reported as “elevate cellular expression of the ABCA-1 gene”. With `Cc1cccc(NC(=O)c2cc3ccccc3oc2=O)c1` [N-(3-methylphenyl)(2-oxochromen-3-yl)carboxamide] the “cellular expression of the ABCA-1 gene” value was “elevate cellular expression of the ABCA-1 gene”.
